Test results from patent US20070275936A1, “Formulations and Treatment Methods” (priority 1998, published 2007).

Key:
[1] = system: Sprague Dawley rats; test: TNBS induced distal colitis in rats; assay type: in vivo; conditions: day 14
Method: In another protocol formula 1 compounds were used in a similar animal model. Groups of 10 male Sprague Dawley rats (250-300 grams) were fasted for 24 hours before 2,4,6-trinitrobenzene sulfonic acid (TNBS) or saline challenge. This model presents a severe challenge to the animal's immune system. On Day 0, the rats were lightly anesthetized and a catheter inserted rectally into the colon such that the tip was 8 cm proximal to the anus. Distal colitis was induced by intra-colonic instillation of 0.5 mL of an ethanolic solution of TNBS (60 mg/mL ethanol 50% in water). The test substance, 7-oxodehydroepiandrosterone 20 mg/mL in vehicle or vehicle control was administered by subcutaneous injection (0.1 mL/injection) once a day for 6 days, the first dose being given 30 minutes after TNBS challenge. Sulfasalazine (30 mg/mL in 2% Tween 80 in distilled water) or vehicle control was administered orally (PO) once a day (10 mL/kg/day) for 7 days, the first two doses beginning 24 hours and 2 hours before […] challenge. Signs of diarrhea were recorded daily by examining the anal area. Animals were fasted for 24 hours prior to sacrifice on day 14 and the colon was removed and weighed. After gross observations of colonic tissues, 3 samples were taken from regions approximately 1, 3, and 8 cm proximal to the anus. If gross ulcers or inflammation were present, at least one sample was taken from the affected region. Before removal of the colon, signs of adhesion between the colon and other organs were recorded. […] Body weight, colon-to-body-weight ratio, and damage scores were assessed. Visible damage was scored on a 1-5 scale as follows: 0=No damage; 1=Localized hyperemia but no ulcers; 2=linear ulcers with no significant inflammation; 3=Linear ulcers with inflammation at one site; 4=Two or more sites of ulceration and/or inflammation; 5=Two or more major sites of ulceration and inflammation or one major site of ulceration and inflammation extending more than 1 cm along the length of the colon. […]

[2] = system: P. berghei HP15 ANKA; test: Four-day in vivo suppressive test in TO mice; parameters: species or system Plasmodium berghei; conditions: 100 mg/kg × 4 days i.p., day 5 blood films, 5 equals control
Method: The 4-day suppressive test has been widely used and it can be performed within a 1 week period. The test consists of the inoculation of parasitised erythrocytes on the first day of the experiment (D0), followed by an injection of the test compound, which is also administered on the 2nd, 3rd and 4th days of the protocol. On the 5th day, blood films are taken and antimalarial activity is assessed either by calculating parasitemia, or by scoring parasite numbers on a predetermined scale (i.e., 1-5).
The protocol is summarized as follows. Five female TO mice were used per test group. P. berghei HP15 ANKA parasites were collected by cardiac puncture using a heparinised syringe from a donor mouse having a 30+% parasitaemia. The blood was diluted with diluting agent (50% HIFCS+50% sterile PBS) to a final concentration of 1% parasitaemia or 1×10^7 infected erythrocytes per 0.2 mL of the infecting suspension. […] The steroid formulations were administered intraperitoneally 2 hours after parasite inoculation. The compounds were administered once a day starting on Do, and continued on the following three days. Blood films were made from tail blood on the day after the last dosing of compound and the blood was fixed with 100% methanol and stained with 10% Giemsa. Parasitaemias were scored on a scale of 0-5, where 5 is equal to the control.
An inoculum of 1% parasitaemia […], 0.2 mL per mouse (female strain TO mice), was delivered by intravenous injection. Drug administration commenced 2 hours after inoculation on Day 1 and continued for 3 days.

[3] = system: BALB/c mice; test: Reversal of immunosenescence: HBsAg vaccination of aged mice; assay type: in vivo; conditions: for mice producing anti-HBsAg in response to secondary vaccination: groups of 8, 0.3 mg/mouse at primary vaccination
Method: Healthy aged (20-month) or immunologically-mature (3-month) BALB/c mice were vaccinated with hepatitis B surface antigen (HBsAg) (2 μg; Recombivax-HB; Merck) and Alum (2.75 μg). The aged mice were vaccinated with the antigen and also received a single subcutaneous injection of either 0.3 mg or 3.0 mg of 3β,7β,17β-trihydroxyandrost-5-ene (AET), BrEA or 7-oxodehydroepiandrosterone, dehydroepiandrosterone or the vehicle (placebo control). The AET, BrEA hemihydrate or dehydroepiandrosterone was present in a formulation that contained 60 mg/mL of the compound suspended in 0.1% w/v carboxymethyl cellulose sodium in 0.9% saline. 7-Oxodehydroepiandrosterone was in a formulation that contained 60 mg/mL of the compound suspended in 0.1% w/v gum arabic in 0.9% saline. A concentration of 6 mg/mL was obtained by diluting the 60 mg/mL formulation with vehicle that lacked the active substance.
Blood samples were collected 14, 21 and 34 days after treatment and the sera were analyzed by ELISA to determine the concentration of HBsAg-specific IgG (total IgG). In addition, samples obtained on day 21 were analyzed to determine the concentration of HBsAg-specific IgG1 and IgG2a subclasses. The results summarized below were average values obtained with blood samples collected 21 days after vaccination of groups of 8 mice. Subcutaneous injection was performed after shaving the hair from the thighs of each mouse. The injected volume was 50 μL for compound (3.0 mg or 0.3 mg) or placebo, and for vaccine preparation. The vehicle control consisted of carboxymethylcellulose (0.5%) in saline (0.9%). Antibody titers were determined by ELISA.
Secondary antibody response. Later, 42 days after the initial exposure to HBsAg, serum samples were taken from the mice described in the previous section and these were tested for anti-HBsAg IgG. At this time-point, vaccine-specific IgG titers were either low or undetectable. Three days later (45 days after first vaccination), the mice were injected again with HBsAg in Alum, but this time, none of the mice received immunosteroid (secondary vaccination). Serum samples collected 7 days and 14 days after the second exposure to HBsAg vaccine were assayed for anti-HBsAg antibody. […] In contrast, in aged mice that had received no immunosteroid with the first HBsAg injection, low levels of anti-HBsAg were detectable, and only in 4 of the 8 mice in this group was antibody detectable. Increases in anti-HBsAg titers were seen following secondary vaccination in aged animals that had been treated with immunosteroid in conjunction with the first HBsAg exposure. The anti-HBsAg antibody titer in serum increased following secondary vaccination in all 8 mice in the groups of aged mice that were treated at primary vaccination with the higher dose (3 mg/mouse) of AET, BrEA or 7-oxodehydroepiandrosterone, or with dehydroepiandrosterone (0.3 mg/mouse). In those aged mice that had received the lower dose (0.3 mg/mouse) of AET, BrEA or 7-oxodehydroepiandrosterone at vaccination, an intermediate response was seen, with 6 of the 8 mice producing detectable anti-HBsAg in response to secondary vaccination.

| Structure (SMILES) | histopathology: inflammation / lesion frequency and severity versus controls [1] | Parasitaemia Score (0-5) [2] | mice producing anti-HBsAg in response to secondary vaccination [3] [mice] | mice with increased anti-HBsAg antibody titer following secondary vaccination ([3]; groups of 8, 3 mg/mouse at primary vaccination) [mice] |
| --- | --- | --- | --- | --- |
| C[C@]12CC[C@H](O)C[C@@H]1CC[C@@H]1[C@@H]2CC[C@]2(C)C(=O)[C@H](Br)C[C@@H]12 [BrEA, 16α-bromo-3β-hydroxy-5α-androstane-17-one] | appeared to be similar | 1 | 6 | 8 |
| C[C@]12CC[C@H](O)CC1=CC[C@@H]1[C@@H]2CC[C@]2(C)C(=O)CC[C@@H]12 [DHEA, dehydroepiandrosterone, reference compound] | appeared to be similar | 1 | 8 |  |
